Measurements reported in patent publication US20260256770A1, “COMPOSITIONS FOR AND METHODS OF TREATING HEREDITARY AORTOPATHIES” (Duke University, priority 2021, published 2026).
“Also recorded” adds a separate entry of the source.

What was measured:
TRPC4 = target: T1, TRPC4 (Mus musculus, UniProt Q9QUQ5); conditions: ML204 as reference for projected binding affinity of candidate inhibitors; cited from earlier work
T1 construct: expressed in transfected cells; host or cells: HEK293
T1 sequence (Q9QUQ5 1-890 isoform Q9QUQ5-2): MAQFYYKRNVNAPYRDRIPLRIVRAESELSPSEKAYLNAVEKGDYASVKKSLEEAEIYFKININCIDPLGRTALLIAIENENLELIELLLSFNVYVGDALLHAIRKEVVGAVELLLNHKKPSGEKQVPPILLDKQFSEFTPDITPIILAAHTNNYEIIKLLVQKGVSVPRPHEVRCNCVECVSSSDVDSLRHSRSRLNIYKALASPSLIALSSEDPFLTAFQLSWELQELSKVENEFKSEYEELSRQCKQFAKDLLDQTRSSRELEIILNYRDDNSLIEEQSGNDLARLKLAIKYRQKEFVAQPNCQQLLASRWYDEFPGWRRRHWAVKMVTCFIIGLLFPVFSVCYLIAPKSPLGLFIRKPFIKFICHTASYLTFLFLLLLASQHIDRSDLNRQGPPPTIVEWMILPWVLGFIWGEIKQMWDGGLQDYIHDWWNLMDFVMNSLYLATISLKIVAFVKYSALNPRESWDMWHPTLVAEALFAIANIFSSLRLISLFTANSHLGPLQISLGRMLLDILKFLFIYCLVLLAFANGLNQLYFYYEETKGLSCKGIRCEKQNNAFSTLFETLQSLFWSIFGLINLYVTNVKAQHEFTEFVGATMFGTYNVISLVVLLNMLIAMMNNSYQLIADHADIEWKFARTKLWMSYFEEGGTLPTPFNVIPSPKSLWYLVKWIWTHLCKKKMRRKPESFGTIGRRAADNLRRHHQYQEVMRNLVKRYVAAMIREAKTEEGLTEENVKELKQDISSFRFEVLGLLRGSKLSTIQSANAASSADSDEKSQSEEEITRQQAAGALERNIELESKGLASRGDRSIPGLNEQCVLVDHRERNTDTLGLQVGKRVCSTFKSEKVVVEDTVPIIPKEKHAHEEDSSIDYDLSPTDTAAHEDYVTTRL

129S MFS mice = conditions: 129S background, Mmp17/EGFR/p38MAPK/ERK effects; cited from earlier work
MFS patients = conditions: clinical; cited from earlier work
[1] = tested on: accelerated MFS (aMFS) mice; conditions: aMFS aneurysms generated with exogenous angiotensin II; cited from earlier work
MFS mice = conditions: cited from earlier work
FBN1 mutant MFS mouse [2] = conditions: instead of 6-9 months in MFS mice; cited from earlier work
FBN1 mutant MFS mouse [3] = assay: Accelerated MFS model: osmotically delivered angiotensin II infusion in FBN1 mutant MFS mouse; format: in vivo
Source text: (§1) The Examples provided infra use a novel murine MFS model of accelerated aortic aneurysm formation and cardiomyopathy. This MFS uses two well-characterized in vivo systems for studying aortopathy and cardiomyopathy, namely, the FBN1 mutant MFS mouse and osmotically delivered angiotensin II infusion. In this accelderated model, significant aortic aneurysms were observed as early as 10 days after angiotensin II pump implantation. […] Overwhelmingly, these deaths were a result of ascending aortic aneurysm rupture or dissection. […] Similarly, the accelerated MFS model described and used herein produced a dilated cardiomyopathy as early as 14 days after angiotensin II minipump installation, as determined by echocardiographic measurements of end-diastolic volume and ejection fraction, heart mass-to-body weight ratios, and hematoxylin and eosin tissue staining patterns consistent with the diagnosis. After 14 days of pump installation, 60% of surviving angiotensin II-infused MFS mice met a defined echocardiographic criteria for dilated cardiomyopathy.
(§2) To better understand these clinical differences, a MFS mouse model was generated to facilitate high throughput therapeutic screening. Using exogenous angiotensin II in MFS mice, ascending aortic aneurysms can be generated in 2 weeks instead of 6-9 months (Cavanaugh N B, et al. (2017) Ann Thorac Surg. 104:657-665). […] TRPC4 antagonists therefore represent an opportunity to replace surgery in MFS aortopathy.

[4] = as above; format: in vivo; conditions: angiotensin II-infused wild-type mice over the treatment period
Source text: as §1, §2

## Cc1cc(N2CCCCC2)nc2ccccc12 [ML204, 4-Methyl-2-(piperidin-1-yl) quinoline]
TRPC4
  IC50: 960 to 2600 nM

## C#Cc1cccc(Nc2ncnc3cc(OCCOC)c(OCCOC)cc23)c1 [Erolotinib]
129S MFS mice
  aggressive MFS phenotype: rescue the aggressive MFS phenotype

## CCCCc1nc(Cl)c(CO)n1Cc1ccc(-c2ccccc2-c2nn[nH]n2)cc1 [Losartan]
MFS patients
  aneurysm progression: only slowed aneurysm progression
  number of patients who ultimately required surgery: did not affect
[1]
  response of aneurysms to therapy: only partially respond
MFS mice; MFS mice started on therapy after aneurysms have formed / later in life
  aneurysm growth: only attenuates aneurysm growth; also recorded: aneurysms continue to grow albeit at a slower rate; also recorded: had less of an effect
MFS mice; MFS mice treated prior to aneurysm development / at an early age
  aneurysm formation / development: blocked aneurysm formation; also recorded: blocks aneurysm development; also recorded: did not develop aneurysms
MFS mice; estimate used for power calculation, 0.1 mm standard deviation
  aortic diameter growth: 0.4 mm

## angiotensin II [osmotically delivered exogenous angiotensin II used to accelerate aneurysm formation in MFS mice]
FBN1 mutant MFS mouse [2]
  time to generate ascending aortic aneurysms: 2 weeks
FBN1 mutant MFS mouse [3]; MFS mice
  time to significant aortic aneurysms after pump implantation: ≥ 10 days
FBN1 mutant MFS mouse [3]; MFS mice, echocardiography
  time to dilated cardiomyopathy after minipump installation: ≥ 14 days
FBN1 mutant MFS mouse [3]; after 14 days of pump installation
  surviving mice meeting echocardiographic criteria for dilated cardiomyopathy: 60%
FBN1 mutant MFS mouse [3]; treatment group
  blood pressures: not elevated
[4]
  aneurysm formation: did not form aneurysms

## angiotensin II (DRVYIHPF; Angiotensin-2; UniProt P11859 25-32, looked up) [osmotically delivered exogenous angiotensin II used to accelerate aneurysm formation in MFS mice]
FBN1 mutant MFS mouse [3]; at 14 days after implant
  deaths of treatment group: one third
FBN1 mutant MFS mouse [3]; at 28 days after implant
  deaths of treatment group: more than half
